These results are taken from patent US20180057505A1, “BICYCLIC HETEROARYL COMPOUNDS USEFUL AS INHIBITORS OF THE PAR-2 SIGNALING PATHWAY” (VERTEX PHARMACEUTICALS INCORPORATED, priority 2015, published 2018).

In general, IC50 refers to the point on the concentration scale where inhibition reaches its midpoint.

Holding throughout (type): cell-based
The target in assay [1] is T1, PAR2 (HT-29 cells) (Homo sapiens, UniProt P55085).
T1 construct: host or cells: HT-29
T1 sequence (P55085 26-397): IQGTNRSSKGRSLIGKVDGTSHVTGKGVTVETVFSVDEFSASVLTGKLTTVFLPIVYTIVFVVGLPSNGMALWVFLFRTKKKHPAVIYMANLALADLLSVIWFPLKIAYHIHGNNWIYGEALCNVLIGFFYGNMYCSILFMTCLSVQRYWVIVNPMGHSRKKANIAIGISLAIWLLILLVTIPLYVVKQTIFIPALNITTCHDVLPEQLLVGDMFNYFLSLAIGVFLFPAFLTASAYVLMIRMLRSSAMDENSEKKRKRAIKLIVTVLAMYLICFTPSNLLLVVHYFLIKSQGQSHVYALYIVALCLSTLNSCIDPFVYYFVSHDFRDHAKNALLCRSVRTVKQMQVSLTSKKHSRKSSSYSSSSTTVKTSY
As to the kind of experiment: Ca FLIPR TETRA assay, ANTAGONIST mode, activator 8 μM SLIGKV. The note with it: HT-29 cells; activator 8 μM SLIGKV; Method A: maximal concentration of antagonist 0.1, 1 or 2 μM. A digest of the protocol:
(§1)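 Fluorescent Ca2+ dye (calcium 5) loading of overnight-plated HT-29 cells preceded compound addition and a 30 min room-temperature incubation. Responses to the specified activator concentration were then read by FLIPR Tetra in the same plate.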

In assay [2] the target is T1, PAR2 (HT-29 cells). As to the kind of experiment: Ca FLIPR TETRA assay, ANTAGONIST mode, activator 3.1 U/mL trypsin. Conditions: HT-29 cells; activator 3.1 U/mL trypsin; Method A: maximal concentration of antagonist 0.1, 1 or 2 μM. The gist of the method: as §1
Assay [3] relates to Thrombin-stimulated Ca2+ response in HT-29 cells. Description: Ca FLIPR TETRA assay, ANTAGONIST mode, activator 1 U/mL Thrombin. The note with it: Homo sapiens; HT-29 cells, activator 1 U/mL Thrombin. A digest of the protocol: as §1
The subject of assay [4] is UTP-stimulated Ca2+ response in HT-29 cells. Description: Ca FLIPR TETRA assay, ANTAGONIST mode, activator 0.6 μM UTP. Conditions: Homo sapiens; HT-29 cells, activator 0.6 μM UTP. The gist of the method:
as §1

Molecules are shown by their SMILES.

For the compound `CC(C)(C)c1cc(-c2ccc(Cl)cc2)nc2cc(C(=O)N3CCN(c4nccc(C(=O)O)n4)CC3(C)C)oc12` [Example I-457], the half-maximal inhibitory concentration (IC50) at PAR2 (HT-29 cells) [1] came out at 0.8 nM; at PAR2 (HT-29 cells) [2] it was 0.9 nM; in assay [3], 1900 nM; in assay [4], 1500 nM.
On to `CC1(C)CCC(c2cc(C(C)(C)C)c3oc(C(=O)N4CCN(c5cccc(C(=O)O)n5)C(=O)C4(C)C)cc3n2)CC1` [Example I-458], for which the half-maximal inhibitory concentration (IC50) at PAR2 (HT-29 cells) [1] worked out at 8.7 nM; on PAR2 (HT-29 cells) [2], 18 nM; in assay [3] it was 1150 nM; in assay [4] it was 1190 nM.
For the compound `CC(C)(C)c1cc(-c2ccc(Cl)c(F)c2)nc2cc(C(=O)N3CCN(c4cccc(C(=O)O)n4)C(=O)C3(C)C)oc12` [Example I-459], the concentration for half-maximal inhibition (IC50) at PAR2 (HT-29 cells) [1] worked out at 1.8 nM; at PAR2 (HT-29 cells) [2] it was 1.3 nM; in assay [3], 350 nM; in assay [4], 660 nM.
Consider `CC(C)(C)c1cc(-c2ccc(Cl)cc2)nc2cc(C(=O)N3CCN(c4cccc(C(=O)O)n4)C(=O)C3(C)C)oc12` [Example I-460], for which the 50% inhibitory concentration (IC50) on PAR2 (HT-29 cells) [1] amounted to 10.6 nM; at PAR2 (HT-29 cells) [2], 14 nM; in assay [3] it was 1730 nM; in assay [4], 1870 nM.
The matching figures for `CC(C)(C)c1cc(-c2ccc(Cl)c(F)c2)nc2cc(C(=O)N3CCN(c4nccc(C(=O)O)n4)CC3(C)C)oc12` [Example I-461]: 0.4 nM, 0.5 nM, 660 nM and 560 nM.
The matching figures for `Cc1nc(N2CCN(C(=O)c3cc4nc(-c5ccc(Cl)cc5)cc(C(C)(C)C)c4o3)C(C)(C)C2)ncc1C(=O)O` [Example I-462]: 0.6 nM, 0.8 nM, 1600 nM and 1250 nM.
As for `CC(C)(C)c1cc(-c2ccc(Cl)cc2)nc2cc(C(=O)N3CCN(c4cncc(C(=O)O)n4)CC3(C)C)oc12` [Example I-463], the IC50 was 0.7 nM on PAR2 (HT-29 cells) [1], 0.9 nM on PAR2 (HT-29 cells) [2], 1010 nM in assay [3] and 860 nM in assay [4].
For the compound `CC1(C)CCC(c2cc(C(C)(C)C)c3oc(C(=O)N4CCN(c5cncc(C(=O)O)n5)CC4(C)C)cc3n2)CC1` [Example I-464], the IC50 at PAR2 (HT-29 cells) [1] turned out to be 0.5 nM; at PAR2 (HT-29 cells) [2], 0.9 nM; in assay [3], 810 nM; in assay [4], 610 nM.
As for `Cc1nc(N2CCN(C(=O)c3cc4nc(C5CCC(C)(C)CC5)cc(C(C)(C)C)c4o3)C(C)(C)C2)ncc1C(=O)O` [Example I-465], the half-maximal inhibitory concentration (IC50) is 0.5 nM at PAR2 (HT-29 cells) [1], 1.2 nM at PAR2 (HT-29 cells) [2], more than 1010 nM in assay [3] and 960 nM in assay [4].
In the case of `Cc1nc(N2CCN(C(=O)c3cc4nc(-c5ccc(Cl)c(F)c5)cc(C(C)(C)C)c4o3)C(C)(C)C2)ncc1C(=O)O` [Example I-466], the half-inhibitory concentration (IC50) on PAR2 (HT-29 cells) [1] amounted to 0.2 nM; on PAR2 (HT-29 cells) [2], 0.4 nM; in assay [3], 1150 nM; in assay [4], 995 nM.
Turning to `CCS(=O)(=O)NCC(=O)N1CCN(C(=O)c2cc3nc(-c4ccc(Cl)cc4)cc(C(C)(C)C)c3o2)C(C)(C)C1` [Example I-467], the IC50 on PAR2 (HT-29 cells) [1] was 4.3 nM; on PAR2 (HT-29 cells) [2], 7.7 nM; in assay [3] it was more than 2000 nM; in assay [4] it was more than 2000 nM.
Consider `CCS(=O)(=O)NCC(=O)N1CCN(C(=O)c2cc3nc(-c4ccc(Cl)c(F)c4)cc(C(C)(C)C)c3o2)C(C)(C)C1` [Example I-468], for which the IC50 at PAR2 (HT-29 cells) [1] is 2.5 nM; at PAR2 (HT-29 cells) [2], 4.7 nM; in assay [3], more than 2000 nM; in assay [4], more than 2000 nM.
For the compound `CC(C)(C)c1cc(-c2ccc(Cl)c(F)c2)nc2cc(C(=O)N3CCN(c4cncc(C(=O)O)n4)CC3(C)C)oc12` [Example I-469], the IC50 at PAR2 (HT-29 cells) [1] is 0.3 nM; on PAR2 (HT-29 cells) [2] it was 0.6 nM; in assay [3], more than 2000 nM; in assay [4] it was more than 2000 nM.
On to `CC(C)(C)c1cc(-c2ccc(Cl)c(F)c2)nc2cc(C(=O)N3CCN(c4nccnc4C(=O)O)CC3(C)C)oc12` [Example I-470], for which the IC50 at PAR2 (HT-29 cells) [1] is 5.7 nM; on PAR2 (HT-29 cells) [2], 6.2 nM; in assay [3] it was more than 2000 nM; in assay [4], more than 2000 nM.
